# Publication PMC9841523 (Journal of Medicinal Chemistry, 2022)
# “Also recorded” adds a separate entry of the source.
# Legend:
# [1] = system: AKT S473 phosphorylation (mTORC2); experiment: AlphaLISA/MSD analysis of AKT phosphorylation in MDA-MB-468 cells; type: cell-based; conditions: Homo sapiens; MDA-MB-468 cells; read-out: pAKT IC50
# Method: (§1) Cell culture and reagents. Cells were obtained from ATCC, grown in appropriate medium supplemented with 10% fetal bovine serum and 1% penicillin/streptomycin and maintained at 37 °C in a humidified incubator at 5% CO 2.
# (§2) AlphaLISA and MesoScale Discovery (MSD) analysis of 4EBP1, S6K and AKT phosphorylation. mTOR substrate phosphorylation in MDA-MB-468 cells was assayed using AlphaLISA SureFire Ultra kits for p4EBP1 Thr37/46, p-P70S6K Thr389 and p-AKT1/2/3 Ser473 (PerkinElmer), and MSD Multi-Array Assay Systems for Phospho-4EBP1 (Thr37/46) and Phospho-AKT (Ser473) (MSD). Cells were seeded at 25,000 cells per well and exposed the next day to serial three-fold dilutions of compounds in complete medium with 0.1% dimethylsulfoxide (DMSO). After indicated incubation times, cells were lysed and AlphaLISA or MSD performed according to the manufacturers’ protocols. Samples were read using an EnVision Multilabel Plate Reader (PerkinElmer) using standard AlphaLISA settings or using an MSD plate reader. Data were plotted as a function of logM [compound] with a sigmoidal concentration response (variable slope) model fitted to the data to estimate the inhibitor half-maximum effective concentration (EC 50) in Prism 7 (GraphPad). Alternatively, results were analyzed as percentage of control in which 0% was set as signal from 1 μM Torin1 and 100% was set as the mean of DMSO wells on each plate, and inhibitor EC 50 was estimated as described
# Candida albicans = conditions: 10 strains of yeast Candida albicans; cited from earlier work
# FKBP12 = molecular target: T1, FKBP12 (Homo sapiens, UniProt P62942); experiment: FKBP12 binding affinity, fluorescent probe displacement assay
# T1 construct: Proteros biostructures GmbH (ran the assay)
# T1 sequence (P62942 whole entry): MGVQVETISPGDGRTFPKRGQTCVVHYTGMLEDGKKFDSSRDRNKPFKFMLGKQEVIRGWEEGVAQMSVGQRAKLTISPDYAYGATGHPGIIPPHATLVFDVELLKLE
# Method: Thermo Fisher Scientific catalog no. A15112) in 50 mM HEPES pH 7.5, 0.01% polysorbate 20, 1 mM EGTA and 10 mM MnCl 2. Compounds were diluted in DMSO, and assay was initiated by mixing 160 nl of compound with 16 μL of assay mixture, resulting in a final DMSO
# concentration of 1%. Reactions were mixed for 30 s on an orbital shaker and incubated for 1 h at
# p-P70S6K Thr389 = experiment: AlphaLISA/MSD analysis of S6K phosphorylation in MDA-MB-468 cells; type: cell-based; conditions: MDA-MB-468 cells
# Method: as §1, §2
# [2] = system: 4EBP1 T37/T46 phosphorylation (mTORC1); experiment: AlphaLISA/MSD analysis of 4EBP1 phosphorylation in MDA-MB-468 cells; type: cell-based; conditions: Homo sapiens; MDA-MB-468 cells; read-out: p4EBP1 IC50
# Method: as §1, §2
# FKBP12-FRB = molecular target: T2, FKBP12-FRB (Homo sapiens, UniProt P42345+P62942); experiment: TR-FRET ternary complex assay; type: binding; conditions: at the assay detection limit
# T2 construct: human mTOR (residues 1360-2549); purchased Thermo Fisher Scientific (ran the assay)
# T2 sequence (P62942 whole entry, the tested form may be a part): as the sequence (P62942 whole entry) above
# T2 sequence (P42345 1360-2549 limits assumed): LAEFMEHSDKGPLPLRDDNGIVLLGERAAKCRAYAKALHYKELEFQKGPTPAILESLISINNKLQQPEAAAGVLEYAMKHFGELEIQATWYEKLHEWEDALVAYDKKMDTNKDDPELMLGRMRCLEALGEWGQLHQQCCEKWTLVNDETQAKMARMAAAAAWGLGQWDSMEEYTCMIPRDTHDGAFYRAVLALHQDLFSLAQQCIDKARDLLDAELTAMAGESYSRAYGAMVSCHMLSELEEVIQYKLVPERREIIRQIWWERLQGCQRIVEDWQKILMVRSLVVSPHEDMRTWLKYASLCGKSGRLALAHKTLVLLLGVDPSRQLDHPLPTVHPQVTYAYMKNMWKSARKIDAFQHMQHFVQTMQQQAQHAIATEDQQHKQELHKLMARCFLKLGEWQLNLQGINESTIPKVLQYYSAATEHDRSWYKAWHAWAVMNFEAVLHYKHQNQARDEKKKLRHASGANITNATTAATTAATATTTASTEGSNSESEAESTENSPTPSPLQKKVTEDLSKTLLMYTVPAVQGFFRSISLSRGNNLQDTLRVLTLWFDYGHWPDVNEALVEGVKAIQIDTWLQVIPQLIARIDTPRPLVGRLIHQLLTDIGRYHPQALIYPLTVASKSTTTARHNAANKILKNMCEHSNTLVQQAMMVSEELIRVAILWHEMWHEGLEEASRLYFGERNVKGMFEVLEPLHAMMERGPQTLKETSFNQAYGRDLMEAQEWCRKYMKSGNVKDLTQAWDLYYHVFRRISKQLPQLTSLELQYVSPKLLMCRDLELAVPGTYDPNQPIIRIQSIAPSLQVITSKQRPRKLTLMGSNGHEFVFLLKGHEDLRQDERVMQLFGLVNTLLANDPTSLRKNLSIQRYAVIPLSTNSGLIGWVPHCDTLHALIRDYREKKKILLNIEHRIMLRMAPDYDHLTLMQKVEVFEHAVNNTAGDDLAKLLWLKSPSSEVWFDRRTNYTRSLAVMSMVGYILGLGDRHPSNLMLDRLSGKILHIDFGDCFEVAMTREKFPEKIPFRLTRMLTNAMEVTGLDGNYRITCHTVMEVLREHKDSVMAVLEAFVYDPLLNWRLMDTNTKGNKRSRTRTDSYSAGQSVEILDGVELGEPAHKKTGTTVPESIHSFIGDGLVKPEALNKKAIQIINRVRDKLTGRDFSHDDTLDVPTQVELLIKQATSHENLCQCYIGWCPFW
# Method: Proteros biostructures GmbH, using a fluorescent probe displacement assay. […]
# same conditions, with 6 nM fluorescent probe present. 50 nL compound in DMSO was added to […]
# 11 different concentrations of compound with a 3-fold dilution factor were tested. After a 6 h incubation at room temperature acceptor fluorescence was read on a plate reader. […]
# displacement) were calculated using standard fitting algorithms. The reporter probe is used at a concentration reflecting the tenfold concentration of its own Kd (probe) value. Thus, according to the Cheng Prusoff equation, the Kd value can be calculated with Kd = IC 50 / (1 + (([10 x Kd probe]) / [Kd probe]) = IC 50 / 11.
# TR–FRET ternary complex assay. Assay was performed by Thermo Fisher Scientific, using a modification of a previously described protocol. 1 A homogeneous assay mixture was prepared […]
# Thermo Fisher Scientific catalog no. A15112) in 50 mM HEPES pH 7.5, 0.01% polysorbate 20, 1 mM EGTA and 10 mM MnCl 2. […]
# Nanosyn Lipid Kinase screen. Biochemical inhibition of lipid and related protein kinases was determined by Nanosyn (Santa Clara, CA). […]
# was determined by detection of fluorescent substrates using a microfluidic electrophoresis mobility shift assay with a LabChip3000 instrument (Caliper/PerkinElmer). […]
# NCI-H2122 NSCLC CDX = NCI-H2122 NSCLC CDX model; type: in vivo; conditions: RMC-6272 10 mg/kg ip once weekly; sotorasib 100 mg/kg po qd; single agents or combination
# Method: groups when mean tumor volume reached 400–600 mm 3. Tumor and plasma samples were collected for PK and PD analysis at indicated time points after a single dose of indicated […]
# doses. Everolimus was formulated in v/v/v/, 30/5/65 Propylene glycol/Tween 80/H 2O.
# NCI-H2122 xenograft studies. Female Balb/c nude mice (Beijing V.R Biotechnology Co. […]
# per inoculation. When mean tumor volume reached between 150–200 mm 3, mice were […]
# Transcutol/Solutol HS 15/H 2O. Sotorasib (AMG 510) was administered by oral gavage at 100 mg/kg daily and formulated in 2% (w/v) HPMC E-50, 0.5% Tween 80 in 50 mM sodium citrate […]
# In vivo pharmacodynamics. Snap frozen tumors collected were homogenized with MSD complete lysis buffer (as prepared according to Meso Scale Discovery kit protocol) using PreCellys Bead Shaker (Bertin Instruments) according to manufacturer's protocol. Phospho-4E-BP1(Thr37/46) Whole Cell Lysate Kit (Meso Scale Discovery) was used to quantify phosphorylation of 4E-BP1 in the tumors according to manufacturer's protocol.
# Expression and purification of FKBP12, FRB domain, and RHEB-GTPγS. DNA pET28
smiles,measurement,setting,value
"CO[C@H]1C[C@@H]2CC[C@@H](C)[C@@](O)(O2)C(=O)C(=O)N2CCCC[C@H]2C(=O)O[C@H]([C@H](C)C[C@@H]2CC[C@@H](O)[C@H](OC)C2)CC(=O)[C@H](C)/C=C(\C)[C@@H](O)[C@@H](OC)C(=O)[C@H](C)C[C@H](C)/C=C/C=C/C=C/1C [compound 1, Rapamycin, reference compound]",IC50,[1],> 1000 nM
same,minimum inhibitory concentration,Candida albicans,0.02 to 0.2 µg/mL
"CO[C@H]1C[C@@H]2CC[C@@H](C)[C@@](O)(O2)C(=O)C(=O)N2CCCC[C@H]2C(=O)O[C@H]([C@H](C)C[C@@H]2CC[C@@H](O)[C@H](OC)C2)C[C@@H](O)[C@H](C)/C=C(\C)[C@@H](O)[C@@H](OC)C(=O)[C@H](C)C[C@H](C)/C=C/C=C/C=C/1C [compound 11, C32-hydroxy rapamycin]",Kd,FKBP12,13.3 nM
"CO[C@H]1C[C@@H]2CC[C@@H](C)[C@@](O)(O2)C(=O)C(=O)N2CCCC[C@H]2C(=O)O[C@H]([C@H](C)C[C@@H]2CC[C@@H](O)[C@H](OC)C2)C[C@@H](OC)[C@H](C)/C=C(\C)[C@@H](O)[C@@H](OC)C(=O)[C@H](C)C[C@H](C)/C=C/C=C/C=C/1C [compound 12, C32-methoxy rapamycin]",Kd,FKBP12,701 nM
same,decrease in affinity for FKBP12 relative to rapamycin 1,FKBP12,~1600 fold
same,IC50,"p-P70S6K Thr389; Homo sapiens, read-out: pS6K IC50",0.37 nM
same,decrease in potency (pS6K) relative to rapamycin 1,p-P70S6K Thr389,6 fold
same,IC50,[2],> 1000 nM
same,IC50,[1],> 1000 nM
same,EC50,FKBP12-FRB,< 10 nM
C=CC(=O)N1CCN(c2nc(=O)n(-c3c(C)ccnc3C(C)C)c3nc(-c4c(O)cccc4F)c(F)cc23)[C@@H](C)C1 [sotorasib],antitumor activity (tumor regressions) in NCI-H2122 CDX model,NCI-H2122 NSCLC CDX,Neither; also recorded: only modest inhibition of tumor growth
